Results taken from patent publication US6767890B1, “Peptides having anti-cancer and anti-inflammatory activity” (priority 1998, dated 2004).
Values joined by “and” are separate entries in the source; they are usually repeats but may differ in a detail not shown here. Equal values may be shown once.

Legend:
[1] = system: oxazolone-induced ear swelling; test: Immune Suppression, Cellular (oxazolone ear thickness); assay type: in vivo, mouse; settings: IP, Peptide 100 mg/kg × 5, Cyclophosphamide 30 mg/kg × 5
Method: (§1) For in vivo assay, distilled water and saline was used as vehicle in oral and intraperitoneal administration, respectively. Dosing volume was 20 ml/kg for mice or 10 ml/kg for rats.
Groups of 5 ICR derived male mice weighing 22±1 gms were used. The preshaved abdominal surface was sensitized by application of oxazolone 0.1 ml of 5% solution. […] After additional four days, the animals were challenged by secondary application of oxazolone (0.025 ml of 5% solution) to the right ear. After a further 24 hours, each mouse was sacrificed and ear thickness measured with a Dyer Model micrometer gauge. A 30 percent or more (≧30%) decrease relative to the vehicle control group was considered significant and indicated possible immunosuppressant activity.

[2] = system: ovalbumin-induced bronchoconstriction; test: Pulmonary, Histamine H3 (ovalbumin-induced bronchoconstriction); assay type: in vivo, guinea pig; settings: Peptide PO 10 mg/kg, R-α-methylhistamine IV 30 mg/kg
Method: as §1
A group of Duncan Hartley derived male or female guinea pigs weighing 250±50 gms were anesthetized with pentobarbital sodium (50 mg/kg IP plus an additional 15 mg/kg IP if required) and succinylcholine chloride (2 mg/animal IP) was subsequently administered to prevent spontaneous respiration. Body temperature was maintained at 37° to 38° C. The trachea was cannulated and the guinea pig ventilated with a Harvard rodent respirator in a closed system. Tracheal pressure (TP) was recorded through a side-arm of the cannula connected to a P23ID Statham transducer. Respiratory rate set at 50 strokes/minute with a stroke volume (approximately 1 ml/100 g) sufficient to produce a baseline tracheal pressure of 6 cm H2O. Mean arterial pressure was monitored from a cannulated carotid artery, and heart rate was obtained from chest electrodes arranged for lead II. The jugular vein was cannulated for IV vehicle or drug administration in a volume of 1 ml/kg. Guinea pigs were sensitized with IP injections of ovalbumin 0.5 μg+Al(OH)3 1 mg (0.5 ml/animal) on days 1, and boosted with same dosage of ovalbumin and Al(OH)3 vaccine on day 8; and the animals were ready to be challenged between days 19 and 23 to get a submaximal ovalbumin (50 μg/kg IV)-induced bronchoconstriction, reflected as an increase in tracheal pressure (cm H2O). […]. Test substances were administered PO (10 mg/kg) at 60 minutes before ovalbumin (50 μg/kg IV) challenge in 3 guinea pigs. Tracheal pressure, blood pressure and heart rate were measured immediately before and after ovalbumin challenge.

[3] = biological target: T1, Collagenase IV (Homo sapiens, UniProt P14780); test: Collagenase IV enzyme assay; assay type: biochemical; settings: 100.0 μM; average of duplicate; negative = stimulation
T1 construct: human U937; endogenous in cells; host or cells: U937 cells
T1 sequence (P14780 94-707): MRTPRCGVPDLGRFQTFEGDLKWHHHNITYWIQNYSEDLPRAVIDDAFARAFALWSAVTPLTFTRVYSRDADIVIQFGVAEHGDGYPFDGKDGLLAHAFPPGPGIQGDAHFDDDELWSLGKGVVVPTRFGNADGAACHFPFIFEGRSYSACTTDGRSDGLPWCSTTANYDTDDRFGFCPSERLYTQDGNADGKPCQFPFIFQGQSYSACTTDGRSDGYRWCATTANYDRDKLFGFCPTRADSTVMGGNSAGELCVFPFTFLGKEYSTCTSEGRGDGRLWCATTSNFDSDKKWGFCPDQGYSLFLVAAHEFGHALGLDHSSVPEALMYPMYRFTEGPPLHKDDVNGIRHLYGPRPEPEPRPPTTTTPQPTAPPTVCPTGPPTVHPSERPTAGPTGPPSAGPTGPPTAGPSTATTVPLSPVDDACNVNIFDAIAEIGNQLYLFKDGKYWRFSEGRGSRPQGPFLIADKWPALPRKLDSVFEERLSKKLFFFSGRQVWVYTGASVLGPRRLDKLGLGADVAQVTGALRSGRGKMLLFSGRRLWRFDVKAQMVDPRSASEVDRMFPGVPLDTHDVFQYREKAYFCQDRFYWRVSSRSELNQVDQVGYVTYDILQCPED
Method: (§2) The peptide was further screened in vitro in a variety of enzyme and biochemical assays. Methods employed were adapted from the scientific literature to maximize reliability and reproducibility. The primary literature reference for each assay is listed in Table 11 opposite the results for each assay.
(§3) Results presented in Table 10, “Results,” are the average of duplicate determinations, unless otherwise noted.
(§4) Reference compounds were tested concurrently at 5 concentrations as an integral part of each assay to ensure the validity of the results obtained.
(§5) Enzyme assays were performed under conditions described in Table 8, “Experimental Conditions.”. The commercial suppliers and catalog numbers of substrates employed in this study are given in Table 7, “Material Sources.” The name, commercial source, and catalog numbers of concurrent reference compounds (controls) employed in this study are given in Table 9, “Reference Compound Data.” The reaction catalyzed by each enzyme is listed in Table 8, “Experimental Conditions.”
(§6) Biochemical assay results are presented in Table 10, as the percent inhibition of specific binding or activity, and unless noted are the average of duplicate tubes tested at each concentration.

[4] = biological target: T2, Cyclooxygenase-1 (Ovis aries, UniProt P05979); test: Cyclooxygenase-1 enzyme assay; assay type: biochemical, ram; settings: 300.0 μM; average of duplicate; negative = stimulation
T2 construct: ram seminal; from tissue; host or cells: ram seminal vesicle
T2 sequence (P05979 25-600): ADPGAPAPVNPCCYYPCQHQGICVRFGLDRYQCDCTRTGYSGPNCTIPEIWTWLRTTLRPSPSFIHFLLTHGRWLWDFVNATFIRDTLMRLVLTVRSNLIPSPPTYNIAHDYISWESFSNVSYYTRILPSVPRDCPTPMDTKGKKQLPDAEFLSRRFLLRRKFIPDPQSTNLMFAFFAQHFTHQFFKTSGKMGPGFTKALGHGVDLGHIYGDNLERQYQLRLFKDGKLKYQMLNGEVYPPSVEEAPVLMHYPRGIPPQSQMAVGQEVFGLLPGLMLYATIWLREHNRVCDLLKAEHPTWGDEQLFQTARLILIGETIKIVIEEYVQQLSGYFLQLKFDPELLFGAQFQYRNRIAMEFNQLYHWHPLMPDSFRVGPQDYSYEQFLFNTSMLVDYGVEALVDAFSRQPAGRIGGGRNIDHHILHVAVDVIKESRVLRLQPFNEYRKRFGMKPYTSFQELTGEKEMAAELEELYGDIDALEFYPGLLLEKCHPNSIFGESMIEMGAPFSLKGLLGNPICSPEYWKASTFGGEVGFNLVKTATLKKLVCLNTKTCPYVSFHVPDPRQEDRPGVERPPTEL
Method: (§7) The peptide was further screened in vitro in a variety of enzyme and biochemical assays. Methods employed were adapted from the scientific literature to maximize reliability and reproducibility.
(§8) Unless otherwise indicated, the peptide was tested in duplicate at the concentrations indicated for each assay. Results presented in Table 10, “Results,” are the average of duplicate determinations, unless otherwise noted.
as §5, §6

[5] = biological target: T3, Cyclooxygenase-2 (Ovis aries, UniProt P79208); test: Cyclooxygenase-2 enzyme assay; assay type: biochemical, sheep; settings: 300.0 μM; average of duplicate; negative = stimulation
T3 construct: sheep placenta; from tissue; host or cells: sheep placenta
T3 sequence (P79208 17-603): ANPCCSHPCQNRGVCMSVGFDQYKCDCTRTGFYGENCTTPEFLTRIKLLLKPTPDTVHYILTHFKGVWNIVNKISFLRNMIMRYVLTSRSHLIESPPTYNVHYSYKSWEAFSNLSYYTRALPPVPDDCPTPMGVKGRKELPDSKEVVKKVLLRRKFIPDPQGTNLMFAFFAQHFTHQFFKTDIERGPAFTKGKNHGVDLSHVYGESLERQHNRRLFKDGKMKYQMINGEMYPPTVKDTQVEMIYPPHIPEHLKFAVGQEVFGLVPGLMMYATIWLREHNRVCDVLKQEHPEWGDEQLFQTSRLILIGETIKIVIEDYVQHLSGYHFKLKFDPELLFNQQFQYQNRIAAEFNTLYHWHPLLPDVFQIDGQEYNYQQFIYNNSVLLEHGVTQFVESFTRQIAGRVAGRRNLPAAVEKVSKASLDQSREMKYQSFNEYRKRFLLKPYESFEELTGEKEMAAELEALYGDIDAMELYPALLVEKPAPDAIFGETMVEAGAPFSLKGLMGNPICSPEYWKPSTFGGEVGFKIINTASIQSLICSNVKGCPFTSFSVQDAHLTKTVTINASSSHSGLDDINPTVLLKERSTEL
Method: as §7, §8, §5, §6

[6] = biological target: T4, PLA2, Pancreatic (Sus scrofa, UniProt P00592); test: PLA2, Pancreatic enzyme assay; assay type: biochemical, porcine; settings: 300.0 μM; average of duplicate; negative = stimulation
T4 construct: porcine; from tissue; host or cells: porcine pancreas
T4 sequence (P00592 23-146): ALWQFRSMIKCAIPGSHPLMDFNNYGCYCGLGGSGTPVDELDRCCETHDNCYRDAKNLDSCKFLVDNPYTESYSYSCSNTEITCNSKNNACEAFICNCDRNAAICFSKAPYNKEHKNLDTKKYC
Method: as §2, §3, §4, §5, §6

[7] = system: Protein Kinase C, Non-Select.; test: Protein Kinase C, Non-Select. enzyme assay; assay type: biochemical, rat; settings: 300.0 μM; average of duplicate; negative = stimulation
Method: as §2, §3, §4, §5, §6

[8] = biological target: Ca++ Ch.-L, Benzothiazepine (Rattus norvegicus, UniProt P22002); test: Ca++ Ch.-L, Benzothiazepine radioligand binding; settings: 10.0 μM; specific binding of [3H]Diltiazem; negative = stimulation
Ca++ Ch.-L, Benzothiazepine, sequence (P22002 whole entry): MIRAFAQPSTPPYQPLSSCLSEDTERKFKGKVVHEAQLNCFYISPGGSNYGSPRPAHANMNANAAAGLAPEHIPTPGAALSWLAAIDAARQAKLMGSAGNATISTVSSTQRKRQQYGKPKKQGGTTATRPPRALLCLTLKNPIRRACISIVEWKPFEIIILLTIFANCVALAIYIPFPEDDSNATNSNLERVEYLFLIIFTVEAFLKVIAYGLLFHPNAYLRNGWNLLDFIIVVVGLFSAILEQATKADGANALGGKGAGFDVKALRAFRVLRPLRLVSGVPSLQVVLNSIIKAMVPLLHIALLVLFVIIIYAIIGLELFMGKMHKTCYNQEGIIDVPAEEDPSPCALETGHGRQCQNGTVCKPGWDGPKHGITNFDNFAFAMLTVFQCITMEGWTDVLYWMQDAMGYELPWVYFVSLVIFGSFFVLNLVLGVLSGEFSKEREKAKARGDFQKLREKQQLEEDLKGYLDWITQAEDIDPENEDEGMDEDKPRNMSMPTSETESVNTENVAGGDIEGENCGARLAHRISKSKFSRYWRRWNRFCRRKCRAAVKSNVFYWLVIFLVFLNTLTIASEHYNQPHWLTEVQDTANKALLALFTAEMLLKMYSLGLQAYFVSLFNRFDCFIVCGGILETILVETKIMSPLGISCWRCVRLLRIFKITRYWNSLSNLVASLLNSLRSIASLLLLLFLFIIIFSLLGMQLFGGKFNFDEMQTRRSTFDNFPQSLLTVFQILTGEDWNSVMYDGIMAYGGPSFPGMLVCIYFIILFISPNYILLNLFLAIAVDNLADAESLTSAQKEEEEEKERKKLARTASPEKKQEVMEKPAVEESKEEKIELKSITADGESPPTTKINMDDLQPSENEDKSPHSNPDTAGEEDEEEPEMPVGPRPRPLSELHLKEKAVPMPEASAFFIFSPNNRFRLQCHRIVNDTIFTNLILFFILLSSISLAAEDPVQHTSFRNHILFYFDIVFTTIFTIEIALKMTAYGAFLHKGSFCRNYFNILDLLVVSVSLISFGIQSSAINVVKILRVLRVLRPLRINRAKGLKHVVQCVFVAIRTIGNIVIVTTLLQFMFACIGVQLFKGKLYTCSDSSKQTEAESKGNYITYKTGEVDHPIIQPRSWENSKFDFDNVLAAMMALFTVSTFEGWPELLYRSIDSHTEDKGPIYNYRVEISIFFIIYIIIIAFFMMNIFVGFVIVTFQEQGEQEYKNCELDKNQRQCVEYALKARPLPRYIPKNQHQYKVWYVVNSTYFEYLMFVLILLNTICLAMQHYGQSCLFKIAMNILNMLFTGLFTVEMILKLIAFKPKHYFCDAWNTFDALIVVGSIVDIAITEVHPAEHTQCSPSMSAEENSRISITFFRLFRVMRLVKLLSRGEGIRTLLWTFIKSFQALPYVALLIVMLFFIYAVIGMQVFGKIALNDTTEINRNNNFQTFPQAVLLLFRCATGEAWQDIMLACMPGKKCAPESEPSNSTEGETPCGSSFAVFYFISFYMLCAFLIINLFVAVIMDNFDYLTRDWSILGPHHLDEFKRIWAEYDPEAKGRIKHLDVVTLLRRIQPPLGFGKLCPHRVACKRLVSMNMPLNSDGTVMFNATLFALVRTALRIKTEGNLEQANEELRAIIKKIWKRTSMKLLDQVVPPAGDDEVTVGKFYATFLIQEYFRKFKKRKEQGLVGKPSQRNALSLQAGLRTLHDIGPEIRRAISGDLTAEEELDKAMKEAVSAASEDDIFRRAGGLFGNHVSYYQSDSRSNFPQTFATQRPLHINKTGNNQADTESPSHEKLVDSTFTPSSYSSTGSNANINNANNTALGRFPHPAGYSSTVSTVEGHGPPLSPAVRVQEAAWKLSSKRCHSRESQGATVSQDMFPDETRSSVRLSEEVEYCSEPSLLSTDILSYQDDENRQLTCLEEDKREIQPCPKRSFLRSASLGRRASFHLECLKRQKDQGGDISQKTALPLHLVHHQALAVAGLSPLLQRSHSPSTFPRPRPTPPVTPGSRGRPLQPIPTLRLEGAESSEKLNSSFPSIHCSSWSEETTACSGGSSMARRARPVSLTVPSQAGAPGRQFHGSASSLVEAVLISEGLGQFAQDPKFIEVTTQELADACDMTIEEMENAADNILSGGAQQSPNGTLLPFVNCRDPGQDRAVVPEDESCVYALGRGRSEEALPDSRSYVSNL
Method: as §7, §3
(§9) Radioligand binding assays were performed under conditions described in Table 8, “Experimental Conditions.” Radioligands employed in this study are given in Table 8, and commercial sources and catalog numbers of the radioligands are provided in Table 7, “Material Sources.” Unlabeled, blocking ligands employed this study are listed in Table 8, “Experimenal Conditions,” along with the commercial sources and catalog number of the unlabeled ligand. The concurrent reference compound (control) employed in each assay is listed in Table 9, “Reference Compound Data,” along with the commercial supplier and catalog number of the compound. Where receptors have been obtained through recombinant expression techniques, the species from which the cDNA was obtained, and the type of expression system employed (mammalian, insect, bacterial) is also given Table 7.
(§10) Maximum total binding and nonspecific binding were determined each time each assay was run. Nonspecific binding was defined as the proportion of total binding not displaced by unlabeled ligand specific for the receptor. […]

[9] = biological target: T5, Leukotriene B4 (Homo sapiens, UniProt Q15722); test: Leukotriene B4 radioligand binding; settings: 10.0 μM; specific binding of [3H]LTB4; negative = stimulation
T5 construct: human U937; endogenous in cells; host or cells: U937 cells
T5 sequence (Q15722 whole entry): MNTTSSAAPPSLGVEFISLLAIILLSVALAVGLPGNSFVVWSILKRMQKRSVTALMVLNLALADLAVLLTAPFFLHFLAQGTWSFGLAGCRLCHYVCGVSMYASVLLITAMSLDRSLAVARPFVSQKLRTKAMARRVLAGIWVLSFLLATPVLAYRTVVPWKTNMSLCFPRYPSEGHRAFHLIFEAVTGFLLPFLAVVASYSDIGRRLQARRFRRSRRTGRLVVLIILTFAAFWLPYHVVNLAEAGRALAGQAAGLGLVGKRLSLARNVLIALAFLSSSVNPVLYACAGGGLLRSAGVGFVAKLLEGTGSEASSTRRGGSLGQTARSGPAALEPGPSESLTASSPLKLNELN
Method: as §7, §3, §9, §10

Substance: LEU-PRO-PRO-SER-ARG [Peptide]
- % INH. ([1]; decrease of net ear thickness relative to vehicle control): 17%
- Thickness Net, X (group mean) ([1]; group mean): 23.0 × 0.1 mm
- Thickness Net ([1]; individual mouse, R. Ear minus L. Ear): 20 × 0.1 mm and 21 × 0.1 mm and 24 × 0.1 mm and 27 × 0.1 mm
- Thickness R. Ear ([1]; individual mouse, challenged right ear, 24 hours after oxazolone challenge): 43 × 0.1 mm (2×) and 44 × 0.1 mm and 50 × 0.1 mm
- Thickness L. Ear ([1]; individual mouse, left ear): 23 × 0.1 mm (2×) and 22 × 0.1 mm and 20 × 0.1 mm
- Inc. of TP X ± SEM ([2]; group mean, N=3): 31.5 ± 2.3 cm H2O
- Inc. of TP Ind. ([2]; individual guinea pig, tracheal pressure after ovalbumin 50 μg/kg IV): 27.5 cm H2O and 35.5 cm H2O and 31.5 cm H2O
- % INH. ([2]; inhibition of induced bronchoconstriction relative to vehicle): −6.8%
- % Inhibition [3]: 2%
- % Inhibition [4]: 2%
- % Inhibition [5]: 2%
- % Inhibition [6]: −11%
- % Inhibition [7]: −6%
- % Inhibition [8]: 18%
- % Inhibition [9]: 8%
